Each compound was assayed on Mus musculus (assay: In vivo inhibition of L1210 murine leukemia, expressed as optimal non toxic dose (CD2F1 mice were given an injection of […] i.p. and treated on day 1)). Settings: not given.
Type: functional

Compound	OD
C=C(Br)C(=O)Nc1cn(C)c(C(=O)Nc2cc(C(=O)Nc3cc(C(=O)Nc4cc(C(=O)NCCC(=N)N)n(C)c4)n(C)c3)n(C)c2)n1.Cl	6.25 mg/kg
Cl.Cn1cc(NC(=O)c2cc(NC(=O)c3cc(NC(=O)c4cc(NC(=O)c5ccc(N(CCCl)CCCl)cc5)nn4C)cn3C)cn2C)cc1C(=O)NCCC(=N)N	3.13 mg/kg
Cl.Cn1cc(NC(=O)c2cc(NC(=O)c3cc(NC(=O)c4nc(NC(=O)c5ccc(N(CCCl)CCCl)cc5)cn4C)cn3C)cn2C)cc1C(=O)NCCC(=N)N	6.25 mg/kg
C=C(Br)C(=O)Nc1cc(C(=O)Nc2cc(C(=O)Nc3cc(C(=O)Nc4cc(C(=O)NCCC(=N)N)n(C)c4)n(C)c3)n(C)c2)n(C)n1.Cl	6.25 mg/kg
Cl.Cn1cc(NC(=O)c2cc(NC(=O)c3cc(NC(=O)c4ccc(N(CCCl)CCCl)cc4)cn3C)cn2C)cc1C(=O)NCCC(=N)N [TALLIMUSTINE CHLORIDE]	3.13 mg/kg

These compounds were tested on L1210 (assay: In vitro inhibition of L1210 murine leukemia (Drug sensitivity was determined by counting surviving cells after 48 hr of continuous exposure to at least 4 conc. of drug)). Settings: Mus musculus, L1210, 48 h.
Type: functional, cell-based

Compound	IC50
Cl.Cn1cc(NC(=O)c2cc(NC(=O)c3cc(NC(=O)c4cc(NC(=O)c5ccc(N(CCCl)CCCl)cc5)nn4C)cn3C)cn2C)cc1C(=O)NCCC(=N)N	0.0291 µg/mL
Cl.Cn1cc(NC(=O)c2cc(NC(=O)c3cc(NC(=O)c4nc(NC(=O)c5ccc(N(CCCl)CCCl)cc5)cn4C)cn3C)cn2C)cc1C(=O)NCCC(=N)N	2 µg/mL

— ChEMBL document CHEMBL1149967, “Synthesis and antitumor activity of novel distamycin derivatives” (Bioorg Med Chem Lett, 1996)
